Measurements: patent US20260274807A1 (University of Health Sciences and Pharmacy in St. Louis, priority 2023, published 2026)

Legend:
ERRα = biological target: T1, ERRα (Homo sapiens, UniProt P11474); experiment: ERRE luciferase reporter assay in HEK293 cells transfected with pcDNA3.1 ERRα; type: cell-based; set-up: key to EC50 (ERRα) μM: * <1 μM; ** 1-5 μM; *** >5 μM; i.a. (inactive); details: HEK293 cells transfected with ERRE reporter construct and pcDNA3.1 ERRα; compound for 24 hours; luciferase activity
T1 construct: expressed in transfected cells; host or cells: HEK293
T1 sequence (P11474 1-423): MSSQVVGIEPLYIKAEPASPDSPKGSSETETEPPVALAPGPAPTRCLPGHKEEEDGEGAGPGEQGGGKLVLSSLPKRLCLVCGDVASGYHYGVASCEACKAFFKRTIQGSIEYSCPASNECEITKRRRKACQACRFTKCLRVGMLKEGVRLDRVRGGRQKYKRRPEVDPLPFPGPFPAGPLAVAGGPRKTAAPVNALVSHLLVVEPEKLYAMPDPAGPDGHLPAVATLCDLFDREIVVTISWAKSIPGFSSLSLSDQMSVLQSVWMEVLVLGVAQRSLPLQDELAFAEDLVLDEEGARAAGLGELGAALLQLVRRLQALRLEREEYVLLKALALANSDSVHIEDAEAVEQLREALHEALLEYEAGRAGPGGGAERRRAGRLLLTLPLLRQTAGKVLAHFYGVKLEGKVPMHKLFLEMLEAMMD
Protocol: (§1) HEK293 cells were maintained in Dulbecco's modified Eagles medium (DMEM) supplemented with 10% fetal bovine serum at 37° C. under […]. […] Cells were transfected with ERRE reporter construct and pcDNA3.1 ERRα or ERRγ. Twenty-four-hours post-transfection, the cells were treated with vehicle or compound (various concentrations) for 24 hours (4 wells per dose). Luciferase activity was measured using the One-Glo Tox luciferase reporter assay system (Promega) and EC50s were calculated using GraphPad Prism software.

ERRγ = biological target: T2, ERRγ (Homo sapiens, UniProt P62508); experiment: ERRE luciferase reporter assay in HEK293 cells transfected with pcDNA3.1 ERRγ; type: cell-based; set-up: key to EC50 (ERRγ) μM: * <1 μM; ** 1-5 μM; *** >5 μM; i.a. (inactive); details: HEK293 cells transfected with ERRE reporter construct and pcDNA3.1 ERRγ; compound for 24 hours; luciferase activity
T2 construct: expressed in transfected cells; host or cells: HEK293
T2 sequence (P62508 1-458): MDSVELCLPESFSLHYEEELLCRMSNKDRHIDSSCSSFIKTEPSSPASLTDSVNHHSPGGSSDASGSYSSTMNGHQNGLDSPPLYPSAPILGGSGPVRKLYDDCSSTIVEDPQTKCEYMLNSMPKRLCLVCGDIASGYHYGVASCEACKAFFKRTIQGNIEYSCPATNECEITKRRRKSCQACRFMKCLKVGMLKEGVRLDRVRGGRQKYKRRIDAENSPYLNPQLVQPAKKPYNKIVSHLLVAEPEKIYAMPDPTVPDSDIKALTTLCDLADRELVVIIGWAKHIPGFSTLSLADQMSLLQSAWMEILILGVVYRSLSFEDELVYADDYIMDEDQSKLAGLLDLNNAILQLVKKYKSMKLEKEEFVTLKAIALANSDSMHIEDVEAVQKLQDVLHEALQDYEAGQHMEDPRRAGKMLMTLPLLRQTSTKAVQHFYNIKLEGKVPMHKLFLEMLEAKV
Protocol: as §1

Structure (SMILES) | EC50 (ERRα) [nM] | EC50 (ERRγ) [nM] | EC50 (ERRα) μM (ERRα) | EC50 (ERRγ) μM (ERRγ)
COc1ccc(-c2nnc(-c3cccc(C(F)(F)F)c3)o2)cc1 | 1000 to 5000 | > 5000 |  | 
O=[N+]([O-])c1ccc(-c2nnc(-c3ccccc3[N+](=O)[O-])o2)cc1 [Entry 11, 2-(2-nitrophenyl)-5-(4-nitrophenyl)-1,3,4-oxadiazole] | 1000 to 5000 | 1000 to 5000 |  | 
O=[N+]([O-])c1ccc(-c2nnc(-c3cccc([N+](=O)[O-])c3)o2)cc1 [Entry 12, 2-(3-nitrophenyl)-5-(4-nitrophenyl)-1,3,4-oxadiazole] | 1000 to 5000 | 1000 to 5000 |  | 
O=[N+]([O-])c1ccc(-c2nnc(-c3ccc([N+](=O)[O-])cc3)o2)cc1 [Entry 13, 2,5-bis(4-nitrophenyl)-1,3,4-oxadiazole] | 1000 to 5000 | 1000 to 5000 |  | 
c1ccc(-c2nnc(-c3ccc4ccccc4n3)o2)cc1 [Entry 14, 2-phenyl-5-(quinolin-2-yl)-1,3,4-oxadiazole] | > 5000 | > 5000 |  | 
c1ccc(-c2nnc(-c3ccnc4ccccc34)o2)cc1 [Entry 15, 2-phenyl-5-(quinolin-4-yl)-1,3,4-oxadiazole] |  |  | i.a. | i.a.
COc1ccc(-c2nnc(-c3ccc(N(C)C)cc3)o2)cc1 [Entry 21, 4-(5-(4-methoxyphenyl)-1,3,4-oxadiazol-2-yl)-N,N-dimethylaniline] | 1000 to 5000 | 1000 to 5000 |  | 
COc1ccc(-c2nnc(-c3ccccn3)o2)cc1 [Entry 24, 2-(4-methoxyphenyl)-5-(pyridin-2-yl)-1,3,4-oxadiazole] |  |  | i.a. | i.a.
COc1ccc(-c2nnc(-c3cccc([N+](=O)[O-])c3)o2)cc1 [Entry 26, 2-(4-methoxyphenyl)-5-(3-nitrophenyl)-1,3,4-oxadiazole] | 1000 to 5000 | < 1000 |  | 
COc1ccc(-c2nnc(-c3ccccc3Cl)o2)cc1 [Entry 28, 2-(2-chlorophenyl)-5-(4-methoxyphenyl)-1,3,4-oxadiazole] | < 1000 | < 1000 |  | 
COc1ccc(-c2nnc(-c3cccc(OC)c3)o2)cc1 [Entry 29, 2-(3-methoxyphenyl)-5-(4-methoxyphenyl)-1,3,4-oxadiazole] | < 1000 | < 1000 |  | 
COc1ccc(-c2nnc(-c3ccc(OC)cc3)o2)cc1 [Entry 30, 2,5-bis(4-methoxyphenyl)-1,3,4-oxadiazole] | < 1000 | < 1000 |  | 
Cc1ccc(-c2nnc(-c3ccco3)o2)cc1 [Entry 31, 2-(furan-2-yl)-5-(p-tolyl)-1,3,4-oxadiazole] | < 1000 | < 1000 |  | 
Cc1ccc(-c2nnc(-c3ccc(C)o3)o2)cc1 [Entry 32, 2-(5-methylfuran-2-yl)-5-(p-tolyl)-1,3,4-oxadiazole] | < 1000 | < 1000 |  | 
Cc1ccc(-c2nnc(-c3cccs3)o2)cc1 [Entry 33, 2-(thiophen-2-yl)-5-(p-tolyl)-1,3,4-oxadiazole] | < 1000 | < 1000 |  | 
Cc1ccc(-c2nnc(-c3ccnc4ccccc34)o2)cc1 [Entry 34, 2-(quinolin-4-yl)-5-(p-tolyl)-1,3,4-oxadiazole] | < 1000 | < 1000 |  | 
Cc1ccc(-c2nnc(-c3ccccn3)o2)cc1 [Entry 36, 2-(pyridin-2-yl)-5-(p-tolyl)-1,3,4-oxadiazole] | < 1000 | < 1000 |  | 
Cc1ccc(-c2nnc(-c3ccccc3[N+](=O)[O-])o2)cc1 [Entry 37, 2-(2-nitrophenyl)-5-(p-tolyl)-1,3,4-oxadiazole] | < 1000 | < 1000 |  | 
Cc1ccc(-c2nnc(-c3cccc([N+](=O)[O-])c3)o2)cc1 [Entry 38, 2-(3-nitrophenyl)-5-(p-tolyl)-1,3,4-oxadiazole] | < 1000 | < 1000 |  | 
Cc1ccc(-c2nnc(-c3ccc([N+](=O)[O-])cc3)o2)cc1 [Entry 39, 2-(4-nitrophenyl)-5-(p-tolyl)-1,3,4-oxadiazole] | < 1000 | < 1000 |  | 
Cc1ccc(-c2nnc(-c3ccccc3Cl)o2)cc1 [Entry 40, 2-(2-chlorophenyl)-5-(p-tolyl)-1,3,4-oxadiazole] | < 1000 | < 1000 |  | 
COc1cccc(-c2nnc(-c3ccc(C)cc3)o2)c1 [Entry 41, 2-(3-methoxyphenyl)-5-(p-tolyl)-1,3,4-oxadiazole] | < 1000 | < 1000 |  | 
COc1ccc(-c2nnc(-c3ccc(C)cc3)o2)cc1 [Entry 42, 2-(4-methoxyphenyl)-5-(p-tolyl)-1,3,4-oxadiazole] | < 1000 | < 1000 |  | 
FC(F)(F)c1ccc(-c2nnc(-c3ccccc3)o2)cc1 [Entry 43, 2-phenyl-5-(4-(trifluoromethyl)phenyl)-1,3,4-oxadiazole] | 1000 to 5000 | 1000 to 5000 |  | 
FC(F)(F)c1ccc(-c2nnc(-c3ccco3)o2)cc1 [Entry 44, 2-(furan-2-yl)-5-(4-(trifluoromethyl)phenyl)-1,3,4-oxadiazole] | 1000 to 5000 | 1000 to 5000 |  | 
Cc1ccc(-c2nnc(-c3ccc(C(F)(F)F)cc3)o2)o1 [Entry 45, 2-(5-methylfuran-2-yl)-5-(4-(trifluoromethyl)phenyl)-1,3,4-oxadiazole] | 1000 to 5000 | > 5000 |  | 
FC(F)(F)c1ccc(-c2nnc(-c3cccs3)o2)cc1 [Entry 46, 2-(thiophen-2-yl)-5-(4-(trifluoromethyl)phenyl)-1,3,4-oxadiazole] | 1000 to 5000 | 1000 to 5000 |  | 
O=[N+]([O-])c1ccc(-c2nnc(-c3cccc(C(F)(F)F)c3)o2)cc1 [Entry 64, 2-(4-nitrophenyl)-5-(3-(trifluoromethyl)phenyl)-1,3,4-oxadiazole] |  | > 5000 |  | 

The next lines start with the values.

EC50 (ERRα) [nM] | EC50 (ERRγ) [nM] | EC50 (ERRα) μM (ERRα) | EC50 (ERRγ) μM (ERRγ) | Structure (SMILES)
< 1000 | < 1000 |  |  | c1ccc(-c2nnc(-c3ccccc3)o2)cc1 [Entry 1]
< 1000 | < 1000 |  |  | Clc1ccc(-c2nnc(-c3ccccc3)o2)cc1 [Entry 2]
< 1000 | < 1000 |  |  | c1ccc(-c2nnc(-c3cccs3)o2)cc1 [Entry 3]
< 1000 | < 1000 |  |  | Cc1ccc(-c2nnc(-c3ccccc3)o2)cc1 [Entry 4, 2-phenyl-5-(p-tolyl)-1,3,4-oxadiazole]
< 1000 | < 1000 |  |  | COc1ccc(-c2nnc(-c3ccc(Br)cc3)o2)cc1 [Entry 5]
< 1000 | < 1000 |  |  | Clc1ccc(-c2nnc(-c3ccc(Cl)cc3)o2)cc1 [Entry 6]
< 1000 | < 1000 |  |  | O=[N+]([O-])c1ccc(-c2nnc(-c3ccccc3)o2)cc1 [Entry 7, 2-(4-nitrophenyl)-5-phenyl-1,3,4-oxadiazole]
< 1000 | < 1000 |  |  | Cc1ccccc1-c1nnc(-c2ccccc2)o1 [Entry 8]
< 1000 | < 1000 |  |  | Brc1ccc(-c2nnc(-c3ccccc3)o2)cc1 [Entry 9]
< 1000 | < 1000 |  |  | O=[N+]([O-])c1ccccc1Cc1nnc(-c2ccc(C(F)(F)F)cc2)o1 [Entry 16, 2-(2-nitrobenzyl)-5-(4-(trifluoromethyl)phenyl)-1,3,4-oxadiazole]
< 1000 | < 1000 |  |  | COc1ccc(-c2nnc(-c3ccco3)o2)cc1 [Entry 18, 2-(furan-2-yl)-5-(4-methoxyphenyl)-1,3,4-oxadiazole]
< 1000 | < 1000 |  |  | COc1ccc(-c2nnc(-c3ccc(C)o3)o2)cc1 [Entry 19, 2-(4-methoxyphenyl)-5-(5-methylfuran-2-yl)-1,3,4-oxadiazole]
< 1000 | < 1000 |  |  | COc1ccc(-c2nnc(-c3cccs3)o2)cc1 [Entry 20, 2-(4-methoxyphenyl)-5-(thiophen-2-yl)-1,3,4-oxadiazole]
< 1000 | < 1000 |  |  | COc1ccc(-c2nnc(-c3ccnc4ccccc34)o2)cc1 [Entry 22, 2-(4-methoxyphenyl)-5-(quinolin-4-yl)-1,3,4-oxadiazole]
< 1000 | < 1000 |  |  | COc1ccc(-c2nnc(-c3ccc4ccccc4n3)o2)cc1 [Entry 23, 2-(4-methoxyphenyl)-5-(quinolin-2-yl)-1,3,4-oxadiazole]
